Measured values from patent US10253081B2, “Glucagon analogues” (Zealand Pharma A/S, priority 2012, dated 2019).
Read-outs that look alike come from different tables or passages of the source. *1 amine or outer side, *2 acyl side, *3 side chain or, on linkers, in order; H or OH if unused. Where a SMILES comes first, the peptide text is derived from it. Side-chain parts run from the residue outwards. [ ]: non-standard residue; d: D form. The star is where a group is joined. γGlu = O=C(O)[C@H](CCC(=O)[*:2])N[*:1]; Palmitoyl = CCCCCCCCCCCCCCCC(=O)*; Aib = CC(C)(N)C(=O)O

Columns and labels:
[1] = target: T1, human glucagon receptor (Glucagon-R) (Homo sapiens, UniProt P47871); assay: Glucagon receptor efficacy assay (cAMP AlphaScreen, CHO cells); format: cell-based; conditions: Table 1A; CHO cells expressing human Glucagon-R, cAMP; read-out: EC50 hGCGR CHO-K1
T1 construct: expressed in transfected cells
T1 sequence (P47871 26-477): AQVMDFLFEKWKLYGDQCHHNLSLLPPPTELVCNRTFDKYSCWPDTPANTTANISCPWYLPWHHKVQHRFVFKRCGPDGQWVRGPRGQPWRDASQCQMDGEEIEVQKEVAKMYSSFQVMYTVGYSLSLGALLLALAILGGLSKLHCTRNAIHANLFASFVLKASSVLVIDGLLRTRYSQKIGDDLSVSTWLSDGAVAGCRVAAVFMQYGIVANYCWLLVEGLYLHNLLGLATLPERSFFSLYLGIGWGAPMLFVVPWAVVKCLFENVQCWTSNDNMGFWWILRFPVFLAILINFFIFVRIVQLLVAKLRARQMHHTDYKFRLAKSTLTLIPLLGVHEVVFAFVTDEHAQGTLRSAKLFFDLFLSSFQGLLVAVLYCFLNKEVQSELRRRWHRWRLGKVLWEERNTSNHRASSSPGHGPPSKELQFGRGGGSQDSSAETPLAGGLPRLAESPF
Procedure, shortened: (§1)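 Stably transfected CHO clones expressing human GLP-1R or glucagon receptor were treated with increasing peptide concentrations for 15 min at room temperature in KRBH containing 0.1 mM IBMX. After lysis, cAMP was quantified by AlphaScreen; EC50 and efficacy relative to GLP-1 or glucagon reference came from curve fitting.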

[2] = target: T2, human glucagon-like peptide 1 receptor (GLP-1R) (Homo sapiens, UniProt P43220); assay: GLP-1 receptor efficacy assay (cAMP AlphaScreen, CHO cells); format: cell-based; conditions: Table 1A; for EC50: CHO cells expressing human GLP-1-R, cAMP, read-out: EC50 hGLP-1R CHO-K1; for Ratio GLP-1/Glucagon: EC50 [GLP-1R]/EC50 [Glucagon-R]
T2 construct: expressed in transfected cells
T2 sequence (P43220 24-463): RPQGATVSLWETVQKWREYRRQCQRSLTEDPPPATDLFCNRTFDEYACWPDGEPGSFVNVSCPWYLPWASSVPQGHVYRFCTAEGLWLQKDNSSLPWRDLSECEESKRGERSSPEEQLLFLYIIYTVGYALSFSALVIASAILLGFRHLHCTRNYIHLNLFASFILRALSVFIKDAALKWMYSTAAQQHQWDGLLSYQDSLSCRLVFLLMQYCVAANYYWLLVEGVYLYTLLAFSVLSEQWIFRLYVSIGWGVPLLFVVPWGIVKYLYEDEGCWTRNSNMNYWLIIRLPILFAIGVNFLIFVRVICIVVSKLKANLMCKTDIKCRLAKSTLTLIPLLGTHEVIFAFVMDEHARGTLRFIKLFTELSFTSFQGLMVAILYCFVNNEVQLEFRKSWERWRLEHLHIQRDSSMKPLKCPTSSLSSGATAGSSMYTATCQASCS
Procedure, shortened: as §1

[3] = Pharmacokinetic parameters after subcutaneous and intravenous administration to mice; format: in vivo; conditions: male, mouse, plasma, 20 nmol/kg, C57Bl/6J mice; for half-life: read-out: Terminal half life (converted); for MRT: read-out: Mean Residence Time
Procedure, shortened: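 Male C57Bl/6J mice (8–11 weeks) given GLP-1-glucagon dual agonists at 20 nmol/kg s.c. (neck) or i.v. (tail vein), dosing solution 4 μM in PBS with 25 mM phosphate, pH 7.4. Plasma sampled to 24 h, measured by LC-MS/MS; parameters by non-compartmental analysis.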

[4] = Sub-chronic effects on adiposity/body weight in diet-induced obese mice; format: in vivo, C57BL/6J mice; conditions: DIO mice, 5 nmol/kg s.c. twice daily for 31 days
Procedure: Male C57BL/6J mice (Taconic A/S, Denmark) at an age of 5 weeks were maintained on a 12:12 hour light-dark cycle on a high-fat diet (60% of total energy from fat, D12492, Research Diet Inc.) for 20 weeks. All mice (housed 2 per cage) were then mock-treated for a week to acclimatize the animals to handling and injections. Subsequently, the mice were stratified according to body fat mass (measured by magnetic resonance technique) and body weight into 9 groups (n=9-12). Animals were thereafter treated twice daily with subcutaneous injections (5 ml/kg) of vehicle (25 mM phosphate buffer, pH 7.4) or test substances (5 nmol/kg per administration, in equivalent amount of vehicle) for a total of 31 days. The daily injections were given at the start and at the end of the light phase. Body weight, food and water intake were determined daily throughout the study. The data are presented in Table 6 as mean body weight change±S.E.M. S.E.M. is defined as standard error of the mean and was calculated using the formula: S.E.M.=SD/square root (n), where SD is the standard deviation and n the number of observations (in this case animals/group).
Statistical analyses were performed using Graph Pad Prism version 5. The measured parameters were compared using one-way ANOVA followed by Dunnett's multiple comparison test. Differences were considered statistically significant at p<0.05.

Compound | EC50 [1] | EC50 [2] | Ratio GLP-1/Glucagon [2] | clearance ([3]; IV) | half-life ([3]; IV) | Tmax ([3]; SC) | bioavailability ([3]; SC) | MRT ([3]; SC) | half-life ([3]; SC) | Mean body weight change [4]
CCCCCCCCCCCCCCCC(=O)N[C@@H](CCC(=O)NCCCC[C@H](NC(=O)[C@H](CCC(=O)O)NC(=O)[C@H](CC(=O)O)NC(=O)[C@H](CC(C)C)NC(=O)[C@H](Cc1ccc(O)cc1)NC(=O)[C@H](CCCCN)NC(=O)[C@H](CO)NC(=O)[C@H](Cc1ccc(O)cc1)NC(=O)[C@H](CC(=O)O)NC(=O)[C@H](CO)NC(=O)[C@@H](NC(=O)[C@H](Cc1ccccc1)NC(=O)[C@@H](NC(=O)CNC(=O)[C@H](CCC(N)=O)NC(=O)C(C)(C)NC(=O)[C@@H](N)Cc1c[nH]cn1)[C@@H](C)O)[C@@H](C)O)C(=O)N[C@@H](CCCNC(=N)N)C(=O)N[C@@H](C)C(=O)N[C@@H](CCCCN)C(=O)N[C@@H](CC(=O)O)C(=O)N[C@@H](Cc1ccccc1)C(=O)N[C@H](C(=O)N[C@@H](CCC(=O)O)C(=O)N[C@@H](Cc1c[nH]c2ccccc12)C(=O)N[C@@H](CC(C)C)C(=O)N[C@@H](CC(C)C)C(=O)N[C@@H](CO)C(=O)N[C@@H](C)C(=O)O)[C@@H](C)CC)C(=O)O [Compound 14, H-H-Aib-QGTFTSDYSKYLDE-K(Hexadecanoyl-isoGlu)-RAKDFIEWLLSA-OH] (H-H[Aib]QGTFTSDYSKYLDEK([γGlu-Palmitoyl])RAKDFIEWLLSA-OH) | 0.54 nM | 0.53 nM | 0.98 | 0.225 mL/min/kg | 6.2 h | 4 h | 64% | 12.2 h | 6.1 h | −9.5%
CCCCCCCCCCCCCCCC(=O)N[C@@H](CCC(=O)NCCCC[C@H](NC(=O)[C@H](CCC(=O)O)NC(=O)[C@H](CC(=O)O)NC(=O)[C@H](CC(C)C)NC(=O)[C@H](Cc1ccc(O)cc1)NC(=O)[C@H](CCCCN)NC(=O)[C@H](CO)NC(=O)[C@H](Cc1ccc(O)cc1)NC(=O)[C@H](CC(=O)O)NC(=O)[C@H](CO)NC(=O)[C@@H](NC(=O)[C@H](Cc1ccccc1)NC(=O)[C@@H](NC(=O)CNC(=O)[C@H](CCC(N)=O)NC(=O)C(C)(C)NC(=O)[C@@H](N)Cc1c[nH]cn1)[C@@H](C)O)[C@@H](C)O)C(=O)N[C@@H](C)C(=O)N[C@@H](C)C(=O)N[C@@H](CCCCN)C(=O)N[C@@H](CC(=O)O)C(=O)N[C@@H](Cc1ccccc1)C(=O)N[C@H](C(=O)N[C@@H](CCC(=O)O)C(=O)N[C@@H](Cc1c[nH]c2ccccc12)C(=O)N[C@@H](CC(C)C)C(=O)N[C@@H](CCC(=O)O)C(=O)N[C@@H](CO)C(=O)N[C@@H](C)C(N)=O)[C@@H](C)CC)C(=O)O [Compound 15, H-H-Aib-QGTFTSDYSKYLDE-K(Hexadecanoyl-isoGlu)-AAKDFIEWLESA-NH2] | 0.61 nM | 0.19 nM | 0.31 | 0.128 mL/min/kg | 6 h | 6 h | 97% | 17.4 h | 10.5 h | −10.9%
CCCCCCCCCCCCCCCC(=O)N[C@@H](CCC(=O)NCCCC[C@H](NC(=O)[C@H](CO)NC(=O)[C@H](CC(=O)O)NC(=O)[C@H](CC(C)C)NC(=O)[C@H](Cc1ccc(O)cc1)NC(=O)[C@H](CCCCN)NC(=O)[C@H](CO)NC(=O)[C@H](Cc1ccc(O)cc1)NC(=O)[C@H](CC(=O)O)NC(=O)[C@H](CO)NC(=O)[C@@H](NC(=O)[C@H](Cc1ccccc1)NC(=O)[C@@H](NC(=O)CNC(=O)[C@H](CCC(N)=O)NC(=O)C(C)(C)NC(=O)[C@@H](N)Cc1c[nH]cn1)[C@@H](C)O)[C@@H](C)O)C(=O)N[C@@H](C)C(=O)N[C@@H](C)C(=O)N[C@@H](CCC(=O)O)C(=O)N[C@@H](CC(=O)O)C(=O)N[C@@H](Cc1ccccc1)C(=O)N[C@H](C(=O)N[C@@H](CCC(=O)O)C(=O)N[C@@H](Cc1c[nH]c2ccccc12)C(=O)N[C@@H](CC(C)C)C(=O)N[C@@H](CCC(=O)O)C(=O)N[C@@H](CO)C(=O)N[C@@H](C)C(N)=O)C(C)C)C(=O)O [Compound 16, H-H-Aib-QGTFTSDYSKYLDS-K(Hexadecanoyl-isoGlu)-AAEDFVEWLESA-NH2] (H-H[Aib]QGTFTSDYSKYLDSK([γGlu-Palmitoyl])AAEDFVEWLESA-NH2) | 1.58 nM | 0.2 nM | 0.13 | 0.312 mL/min/kg | 4.8 h | 2 h | 80% | 7.5 h | 5 h | −12.2%

Compounds with a lower EC50 [1], results first:

EC50 [1] | EC50 [2] | Ratio GLP-1/Glucagon [2] | clearance ([3]; IV) | half-life ([3]; IV) | Tmax ([3]; SC) | bioavailability ([3]; SC) | MRT ([3]; SC) | half-life ([3]; SC) | Compound | Mean body weight change [4]
0.45 nM | 0.27 nM | 0.60 | 0.22 mL/min/kg | 5.5 h | 4 h | 75% | 12.8 h | 8.6 h | CCCCCCCCCCCCCCCC(=O)N[C@@H](CCC(=O)NCCCC[C@H](NC(=O)[C@H](CO)NC(=O)[C@H](CC(=O)O)NC(=O)[C@H](CC(C)C)NC(=O)[C@H](Cc1ccc(O)cc1)NC(=O)[C@H](CCCCN)NC(=O)[C@H](CO)NC(=O)[C@H](Cc1ccc(O)cc1)NC(=O)[C@H](CC(=O)O)NC(=O)[C@H](CO)NC(=O)[C@@H](NC(=O)[C@H](Cc1ccccc1)NC(=O)[C@@H](NC(=O)CNC(=O)[C@H](CCC(N)=O)NC(=O)[C@H](CO)NC(=O)[C@@H](N)Cc1c[nH]cn1)[C@@H](C)O)[C@@H](C)O)C(=O)N[C@@H](C)C(=O)N[C@@H](C)C(=O)N[C@@H](CCC(=O)O)C(=O)N[C@@H](CC(=O)O)C(=O)N[C@@H](Cc1ccccc1)C(=O)N[C@H](C(=O)N[C@@H](CCC(=O)O)C(=O)N[C@@H](Cc1c[nH]c2ccccc12)C(=O)N[C@@H](CC(C)C)C(=O)N[C@@H](CC(C)C)C(=O)N[C@@H](CCCNC(=N)N)C(=O)N[C@@H](C)C(N)=O)C(C)C)C(=O)O [Compound 7, H-HSQGTFTSDYSKYLDS-K(Hexadecanoyl-isoGlu)-AAEDFVEWLLRA-NH2] (H-HSQGTFTSDYSKYLDSK([γGlu-Palmitoyl])AAEDFVEWLLRA-NH2) | −8.7%
0.31 nM | 0.77 nM | 2.48 | 0.185 mL/min/kg | 5 h | 4 h | 59% | 11.2 h | 5.1 h | CCCCCCCCCCCCCCCC(=O)N[C@@H](CCC(=O)NCCCC[C@H](NC(=O)[C@H](CO)NC(=O)[C@H](CC(=O)O)NC(=O)[C@H](CC(C)C)NC(=O)[C@H](Cc1ccc(O)cc1)NC(=O)[C@H](CCCCN)NC(=O)[C@H](CO)NC(=O)[C@H](Cc1ccc(O)cc1)NC(=O)[C@H](CC(=O)O)NC(=O)[C@H](CO)NC(=O)[C@@H](NC(=O)[C@H](Cc1ccccc1)NC(=O)[C@@H](NC(=O)CNC(=O)[C@H](CCC(N)=O)NC(=O)[C@H](CO)NC(=O)[C@@H](N)Cc1c[nH]cn1)[C@@H](C)O)[C@@H](C)O)C(=O)N[C@@H](C)C(=O)N[C@@H](C)C(=O)N[C@@H](Cc1c[nH]cn1)C(=O)N[C@@H](CC(=O)O)C(=O)N[C@@H](Cc1ccccc1)C(=O)N[C@H](C(=O)N[C@@H](CCC(=O)O)C(=O)N[C@@H](Cc1c[nH]c2ccccc12)C(=O)N[C@@H](CC(C)C)C(=O)N[C@@H](CC(C)C)C(=O)N[C@@H](CO)C(=O)N[C@@H](C)C(=O)O)C(C)C)C(=O)O [Compound 2, H-HSQGTFTSDYSKYLDS-K(Hexadecanoyl-isoGlu)-AAHDFVEWLLSA-OH] (H-HSQGTFTSDYSKYLDSK([γGlu-Palmitoyl])AAHDFVEWLLSA-OH) | −5.1%
